According to ChEMBL document CHEMBL5696442, “Discovery of type II inhibitors of TGFβ-activated kinase 1 (TAK1) and mitogen-activated protein kinase kinase kinase kinase 2 (MAP4K2)” (J Med Chem, 2015):
Active and inactive are the calls of the source. The rule behind the calls is not given here.

What was measured:
[1] = tested on: Tyrosine-protein kinase ABL1 (Homo sapiens), P00519 [T315I]; assay: Inhibition of phosphorylated ABL1 T315I mutant (unknown origin) at 1 uM by Ambit Kinomescan binding assay relative to control; values are per cent of control
[2] = target: Serine/threonine-protein kinase SIK1 (Homo sapiens) (UniProt P57059); assay: Inhibition of SIK (unknown origin) at 1 uM by Ambit Kinomescan binding assay relative to control
[3] = target: Calcium/calmodulin-dependent protein kinase type II subunit delta (Homo sapiens) (UniProt Q13557); assay: Inhibition of CAMK2D (unknown origin) at 1 uM by Ambit Kinomescan binding assay relative to control; values are per cent of control
Sequence of Calcium/calmodulin-dependent protein kinase type II subunit delta (Homo sapiens) (Q13557 whole entry): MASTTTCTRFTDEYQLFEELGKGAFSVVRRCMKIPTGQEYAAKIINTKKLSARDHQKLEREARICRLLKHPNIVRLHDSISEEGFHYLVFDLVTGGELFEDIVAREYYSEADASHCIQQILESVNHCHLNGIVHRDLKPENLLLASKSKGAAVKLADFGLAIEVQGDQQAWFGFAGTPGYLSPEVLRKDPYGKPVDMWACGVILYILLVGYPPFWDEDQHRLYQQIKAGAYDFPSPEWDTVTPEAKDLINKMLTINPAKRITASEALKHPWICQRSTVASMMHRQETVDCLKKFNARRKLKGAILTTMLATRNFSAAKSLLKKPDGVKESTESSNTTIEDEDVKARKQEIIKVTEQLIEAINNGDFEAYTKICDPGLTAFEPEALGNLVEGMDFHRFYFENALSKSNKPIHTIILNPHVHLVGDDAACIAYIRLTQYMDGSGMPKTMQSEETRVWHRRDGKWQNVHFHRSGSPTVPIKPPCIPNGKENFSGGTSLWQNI

[4] = target: Phosphatidylinositol 4-kinase beta (Homo sapiens) (UniProt Q9UBF8); assay: Inhibition of PI4KB ATP labeling site harbouring VPHTQAVVLNSKDK in human A-375 cells at 0.05 uM by KiNativ Profiling analysis relative to control; format: cell-based
Sequence of Phosphatidylinositol 4-kinase beta (Homo sapiens) (Q9UBF8 2-816 limits assumed): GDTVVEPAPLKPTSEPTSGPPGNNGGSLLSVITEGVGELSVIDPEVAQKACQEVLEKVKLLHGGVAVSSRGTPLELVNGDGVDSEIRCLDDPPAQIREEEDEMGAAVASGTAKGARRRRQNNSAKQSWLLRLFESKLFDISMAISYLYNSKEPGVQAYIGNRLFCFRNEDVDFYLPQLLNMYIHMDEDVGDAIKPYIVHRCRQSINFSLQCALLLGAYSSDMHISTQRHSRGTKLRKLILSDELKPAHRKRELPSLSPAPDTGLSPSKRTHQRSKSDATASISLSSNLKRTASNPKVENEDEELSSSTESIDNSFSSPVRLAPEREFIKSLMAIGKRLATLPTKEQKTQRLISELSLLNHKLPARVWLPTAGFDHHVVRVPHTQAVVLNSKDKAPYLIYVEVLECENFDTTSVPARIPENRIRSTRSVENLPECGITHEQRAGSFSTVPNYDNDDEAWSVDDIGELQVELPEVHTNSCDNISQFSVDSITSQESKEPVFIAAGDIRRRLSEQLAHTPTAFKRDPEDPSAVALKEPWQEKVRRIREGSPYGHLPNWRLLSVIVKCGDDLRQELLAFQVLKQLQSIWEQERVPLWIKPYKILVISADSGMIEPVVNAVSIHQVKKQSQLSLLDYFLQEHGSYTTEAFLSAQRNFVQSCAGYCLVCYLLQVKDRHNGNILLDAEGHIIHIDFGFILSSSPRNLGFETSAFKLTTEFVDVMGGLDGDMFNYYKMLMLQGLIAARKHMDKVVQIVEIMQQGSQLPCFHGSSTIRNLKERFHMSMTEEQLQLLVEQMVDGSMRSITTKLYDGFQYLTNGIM

[5] = target: Ribosomal protein S6 kinase alpha-5 (Homo sapiens) (UniProt O75582); assay: Inhibition of C-terminal RPS6KA5 kinase domain 2 (unknown origin) at 1 uM by Ambit Kinomescan binding assay relative to control
Sequence of Ribosomal protein S6 kinase alpha-5 (Homo sapiens) (O75582 whole entry, looked up, the tested form may be a part): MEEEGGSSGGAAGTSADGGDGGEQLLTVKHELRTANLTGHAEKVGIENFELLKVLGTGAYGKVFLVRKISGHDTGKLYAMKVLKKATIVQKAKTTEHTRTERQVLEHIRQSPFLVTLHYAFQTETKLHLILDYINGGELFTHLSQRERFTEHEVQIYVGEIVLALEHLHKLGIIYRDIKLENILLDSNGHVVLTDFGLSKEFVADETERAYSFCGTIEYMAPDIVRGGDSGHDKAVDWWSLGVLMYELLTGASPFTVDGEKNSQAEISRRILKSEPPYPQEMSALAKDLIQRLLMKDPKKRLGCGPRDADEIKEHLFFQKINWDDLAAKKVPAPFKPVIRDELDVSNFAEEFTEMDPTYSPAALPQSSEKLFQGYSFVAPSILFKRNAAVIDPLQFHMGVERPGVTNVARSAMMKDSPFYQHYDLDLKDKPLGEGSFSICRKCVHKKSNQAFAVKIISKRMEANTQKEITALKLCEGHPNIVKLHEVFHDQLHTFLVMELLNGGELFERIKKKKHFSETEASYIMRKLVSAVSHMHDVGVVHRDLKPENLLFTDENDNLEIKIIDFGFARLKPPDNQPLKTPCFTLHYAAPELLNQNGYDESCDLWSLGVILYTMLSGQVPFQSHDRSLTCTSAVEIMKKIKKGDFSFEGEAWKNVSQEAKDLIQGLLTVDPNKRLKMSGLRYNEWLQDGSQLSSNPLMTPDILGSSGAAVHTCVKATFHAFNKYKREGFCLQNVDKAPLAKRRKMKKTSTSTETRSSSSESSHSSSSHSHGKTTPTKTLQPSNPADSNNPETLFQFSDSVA

[6] = target: Serine/threonine-protein kinase Nek6 (Homo sapiens) (UniProt Q9HC98); assay: Inhibition of NEK6 ACT labeling site in human Huh-7 cells at 10 uM by KiNativ Profiling analysis relative to control; format: cell-based
Sequence of Serine/threonine-protein kinase Nek6 (Homo sapiens) (Q9HC98 whole entry): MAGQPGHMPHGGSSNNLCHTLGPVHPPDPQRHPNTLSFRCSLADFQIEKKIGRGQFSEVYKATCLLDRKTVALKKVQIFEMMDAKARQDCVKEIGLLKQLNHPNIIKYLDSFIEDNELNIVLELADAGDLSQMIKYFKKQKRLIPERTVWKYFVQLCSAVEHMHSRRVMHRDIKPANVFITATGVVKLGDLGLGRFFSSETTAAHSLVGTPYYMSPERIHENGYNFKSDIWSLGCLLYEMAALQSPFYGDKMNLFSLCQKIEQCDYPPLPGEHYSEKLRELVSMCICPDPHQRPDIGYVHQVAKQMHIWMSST

[7] = target: T1, Serine/threonine-protein kinase greatwall (Homo sapiens) (UniProt Q96GX5); assay: Inhibition of MASTL K2 labeling site in human Huh-7 cells at 1 uM by KiNativ Profiling analysis relative to control; format: cell-based
T1 sequence (whole entry): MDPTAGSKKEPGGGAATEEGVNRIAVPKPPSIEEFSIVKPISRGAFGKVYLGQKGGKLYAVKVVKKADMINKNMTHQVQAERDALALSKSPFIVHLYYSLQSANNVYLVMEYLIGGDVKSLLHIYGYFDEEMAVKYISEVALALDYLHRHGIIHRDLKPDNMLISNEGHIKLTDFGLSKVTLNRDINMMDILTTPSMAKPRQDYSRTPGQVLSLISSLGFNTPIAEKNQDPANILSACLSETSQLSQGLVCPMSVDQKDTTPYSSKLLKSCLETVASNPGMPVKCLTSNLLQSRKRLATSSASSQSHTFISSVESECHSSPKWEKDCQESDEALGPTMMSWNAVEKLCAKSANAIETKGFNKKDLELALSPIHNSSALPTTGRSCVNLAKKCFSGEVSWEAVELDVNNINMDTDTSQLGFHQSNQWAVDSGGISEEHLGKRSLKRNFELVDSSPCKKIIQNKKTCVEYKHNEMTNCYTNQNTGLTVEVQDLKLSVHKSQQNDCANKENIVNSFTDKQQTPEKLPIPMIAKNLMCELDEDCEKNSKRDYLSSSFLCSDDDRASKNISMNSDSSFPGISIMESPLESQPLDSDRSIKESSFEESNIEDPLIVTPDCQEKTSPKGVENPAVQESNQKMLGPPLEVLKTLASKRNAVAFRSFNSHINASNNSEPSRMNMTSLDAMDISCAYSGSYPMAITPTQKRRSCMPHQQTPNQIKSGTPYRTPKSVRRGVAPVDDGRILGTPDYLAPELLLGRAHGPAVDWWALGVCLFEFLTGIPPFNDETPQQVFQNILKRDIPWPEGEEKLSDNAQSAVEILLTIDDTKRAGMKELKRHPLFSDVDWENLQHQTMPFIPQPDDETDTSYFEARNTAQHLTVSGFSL

[8] = target: Mitogen-activated protein kinase 15 (Homo sapiens) (UniProt Q8TD08); assay: Inhibition of ERK8 (unknown origin) at 10 uM by Ambit Kinomescan binding assay
[9] = target: Serine/threonine-protein kinase MARK2 (Homo sapiens) (UniProt Q7KZI7); assay: Inhibition of MARK2 K1 labeling site harbouring HILTGKEVAVKIIDKTQLNSSSLQK in human Huh-7 cells at 1 uM by KiNativ Profiling analysis relative to control; format: cell-based
Sequence of Serine/threonine-protein kinase MARK2 (Homo sapiens) (Q7KZI7 whole entry): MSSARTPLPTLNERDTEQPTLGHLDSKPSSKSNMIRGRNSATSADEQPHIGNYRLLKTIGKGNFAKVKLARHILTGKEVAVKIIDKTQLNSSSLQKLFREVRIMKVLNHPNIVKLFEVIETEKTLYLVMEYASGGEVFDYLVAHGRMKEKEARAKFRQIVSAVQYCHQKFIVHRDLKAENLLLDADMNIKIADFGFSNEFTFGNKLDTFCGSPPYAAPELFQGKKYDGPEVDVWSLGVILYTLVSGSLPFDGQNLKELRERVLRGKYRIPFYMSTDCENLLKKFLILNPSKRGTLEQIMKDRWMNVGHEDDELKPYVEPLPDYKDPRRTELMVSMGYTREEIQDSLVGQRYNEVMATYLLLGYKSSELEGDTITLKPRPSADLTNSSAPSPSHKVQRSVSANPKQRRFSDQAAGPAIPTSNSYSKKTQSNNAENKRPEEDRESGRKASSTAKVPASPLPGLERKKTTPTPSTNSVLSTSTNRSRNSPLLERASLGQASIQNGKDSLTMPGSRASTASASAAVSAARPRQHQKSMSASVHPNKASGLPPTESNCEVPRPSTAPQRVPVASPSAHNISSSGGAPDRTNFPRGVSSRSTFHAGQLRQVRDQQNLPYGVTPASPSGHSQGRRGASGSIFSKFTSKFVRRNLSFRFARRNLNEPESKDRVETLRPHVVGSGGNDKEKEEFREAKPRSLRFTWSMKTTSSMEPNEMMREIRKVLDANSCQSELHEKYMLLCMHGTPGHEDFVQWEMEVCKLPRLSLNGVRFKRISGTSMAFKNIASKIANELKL

[10] = target: Mitogen-activated protein kinase 9 (Homo sapiens, UniProt P45984); assay: Inhibition of JNK2 (unknown origin) at 10 uM by Ambit Kinomescan binding assay relative to control
Sequence of Mitogen-activated protein kinase 9 (P45984 whole entry, looked up): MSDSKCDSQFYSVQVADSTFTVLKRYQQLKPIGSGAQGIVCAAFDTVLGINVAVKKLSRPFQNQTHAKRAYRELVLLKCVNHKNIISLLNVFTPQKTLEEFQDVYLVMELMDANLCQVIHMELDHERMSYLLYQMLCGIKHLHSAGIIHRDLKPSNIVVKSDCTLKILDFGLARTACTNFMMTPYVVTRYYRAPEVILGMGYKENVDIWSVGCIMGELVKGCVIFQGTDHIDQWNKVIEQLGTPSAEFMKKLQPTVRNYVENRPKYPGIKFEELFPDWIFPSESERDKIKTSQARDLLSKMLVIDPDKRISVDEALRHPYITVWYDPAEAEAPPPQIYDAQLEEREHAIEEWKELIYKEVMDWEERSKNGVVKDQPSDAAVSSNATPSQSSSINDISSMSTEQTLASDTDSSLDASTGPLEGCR

[11] = target: Microtubule-associated serine/threonine-protein kinase 3 (Homo sapiens) (UniProt O60307); assay: Inhibition of MAST3 Lys2 labeling site in human Huh-7 cells at 1 uM by KiNativ Profiling analysis relative to control; format: cell-based
Sequence of Microtubule-associated serine/threonine-protein kinase 3 (Homo sapiens) (O60307 whole entry): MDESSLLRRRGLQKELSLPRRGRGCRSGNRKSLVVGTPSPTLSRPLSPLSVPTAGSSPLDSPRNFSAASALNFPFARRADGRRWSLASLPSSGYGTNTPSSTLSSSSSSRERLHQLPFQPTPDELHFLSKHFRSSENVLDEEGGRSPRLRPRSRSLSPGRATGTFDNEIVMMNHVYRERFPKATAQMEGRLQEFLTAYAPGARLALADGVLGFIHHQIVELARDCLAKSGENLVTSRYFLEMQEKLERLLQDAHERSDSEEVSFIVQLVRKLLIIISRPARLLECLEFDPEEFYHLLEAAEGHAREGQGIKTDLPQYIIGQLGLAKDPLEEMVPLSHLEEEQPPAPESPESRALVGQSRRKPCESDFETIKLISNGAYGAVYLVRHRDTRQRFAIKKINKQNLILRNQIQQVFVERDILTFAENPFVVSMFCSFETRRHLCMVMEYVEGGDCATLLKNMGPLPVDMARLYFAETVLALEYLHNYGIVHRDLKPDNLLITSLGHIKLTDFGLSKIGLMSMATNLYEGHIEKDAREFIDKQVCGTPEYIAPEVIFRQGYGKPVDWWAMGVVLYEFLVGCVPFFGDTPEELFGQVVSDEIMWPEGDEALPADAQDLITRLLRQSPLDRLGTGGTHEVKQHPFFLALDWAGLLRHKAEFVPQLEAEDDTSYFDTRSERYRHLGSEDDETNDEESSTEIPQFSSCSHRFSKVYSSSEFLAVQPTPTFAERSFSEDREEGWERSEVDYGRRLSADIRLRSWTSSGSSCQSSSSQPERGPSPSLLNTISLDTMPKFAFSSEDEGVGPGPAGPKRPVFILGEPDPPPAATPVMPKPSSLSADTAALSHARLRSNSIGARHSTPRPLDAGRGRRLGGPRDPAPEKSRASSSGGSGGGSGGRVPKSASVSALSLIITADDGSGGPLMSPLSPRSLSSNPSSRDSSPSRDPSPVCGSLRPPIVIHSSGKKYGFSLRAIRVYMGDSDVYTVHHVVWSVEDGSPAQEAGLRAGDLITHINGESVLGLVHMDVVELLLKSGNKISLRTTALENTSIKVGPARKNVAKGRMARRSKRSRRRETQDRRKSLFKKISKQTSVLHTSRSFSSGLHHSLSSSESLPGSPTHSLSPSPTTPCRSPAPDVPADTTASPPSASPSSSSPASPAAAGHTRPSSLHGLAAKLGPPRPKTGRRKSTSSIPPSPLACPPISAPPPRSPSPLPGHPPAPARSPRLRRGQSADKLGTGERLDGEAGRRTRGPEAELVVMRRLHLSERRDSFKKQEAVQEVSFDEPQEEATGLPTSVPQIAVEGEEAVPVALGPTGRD

[12] = target: T2, Phosphatidylinositol 5-phosphate 4-kinase type-2 alpha (Homo sapiens) (UniProt P48426); assay: Inhibition of PIP4K2A ATP labeling site harbouring AKELPTLKDNDFINEGQK in human Huh-7 cell lysate at 1 uM by KiNativ Profiling analysis relative to control; format: subcellular
T2 sequence (whole entry): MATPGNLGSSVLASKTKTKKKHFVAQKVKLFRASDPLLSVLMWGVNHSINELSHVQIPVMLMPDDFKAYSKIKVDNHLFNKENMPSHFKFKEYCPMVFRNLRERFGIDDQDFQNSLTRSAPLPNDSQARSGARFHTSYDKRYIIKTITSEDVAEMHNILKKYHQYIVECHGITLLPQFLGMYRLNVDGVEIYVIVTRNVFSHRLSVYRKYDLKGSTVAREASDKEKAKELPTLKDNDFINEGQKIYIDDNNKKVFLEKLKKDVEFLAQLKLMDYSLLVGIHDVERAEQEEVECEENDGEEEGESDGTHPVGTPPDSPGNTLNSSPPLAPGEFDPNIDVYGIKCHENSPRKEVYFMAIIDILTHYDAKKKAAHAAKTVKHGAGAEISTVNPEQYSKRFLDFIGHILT

[13] = target: T3, Scaffold protein ILK (Homo sapiens) (UniProt Q13418); assay: Inhibition of ILK Lys1 labeling site in human Huh-7 cells at 1 uM by KiNativ Profiling analysis relative to control; format: cell-based
T3 sequence (whole entry): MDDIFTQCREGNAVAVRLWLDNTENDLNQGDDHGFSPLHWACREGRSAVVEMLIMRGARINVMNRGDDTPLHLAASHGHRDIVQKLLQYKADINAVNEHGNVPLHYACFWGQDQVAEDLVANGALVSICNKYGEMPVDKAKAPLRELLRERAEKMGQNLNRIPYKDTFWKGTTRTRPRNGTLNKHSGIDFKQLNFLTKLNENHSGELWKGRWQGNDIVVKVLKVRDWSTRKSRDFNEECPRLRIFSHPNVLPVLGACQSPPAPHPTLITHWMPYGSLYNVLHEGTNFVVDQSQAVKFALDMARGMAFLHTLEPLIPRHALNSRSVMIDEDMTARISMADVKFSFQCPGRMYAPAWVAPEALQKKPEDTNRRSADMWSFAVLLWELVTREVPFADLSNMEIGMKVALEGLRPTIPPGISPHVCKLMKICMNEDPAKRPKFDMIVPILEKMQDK

[14] = target: T3, Scaffold protein ILK (Homo sapiens); assay: Inhibition of ILK Protein Kinase Domain labeling site in human Huh-7 cell lysate at 1 uM by KiNativ Profiling analysis relative to control; format: subcellular

## CCN1CCN(Cc2ccc(NC(=O)c3ccc(C)c(/C=C/c4cnc5[nH]ccc5c4OC)c3)cc2C(F)(F)F)CC1
[1]
  percent of control: 5.4%
[2]
  inhibition: 2.1%
[3]
  residual activity: 100%
[4]
  inhibition: -10%
[5]
  inhibition: 100%

## CCN1CCN(Cc2ccc(NC(=O)c3ccc(C)c(Oc4ccnc5[nH]ccc45)c3)cc2C(F)(F)F)CC1
[6]
  inhibition: -3%
[7]
  inhibition: -2.1%
[8]
  inhibition: inactive
[9]
  inhibition: inactive
[10]
  inhibition: 0%

## CNc1cc(Oc2cc(C(=O)Nc3cc(N4CCN(C)CC4)cc(C(F)(F)F)c3)ccc2C)ncn1
[11]
  inhibition: 14.9%
[12]
  inhibition: 0.1%
[13]
  inhibition: -6.7%
[14]
  inhibition: -2.4%
